The values below come from PubChem BioAssay (NCI).

The structures appear in SMILES notation.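 Cells were grown in 96-well plates and exposed to each compound for 48 hours at five concentrations; endpoints were interpolated linearly between bracketing concentrations, or set to the highest concentration if not reached. TGI is the concentration that stops growth completely.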 Some results are limits rather than exact numbers.

Common to all, as to test: DTP human tumour cell line panel, 48 h
Assay [1] has as its system SK-MEL-5 melanoma.
In assay [2] the test system is MALME-3M melanoma.
Assay [3] relates to NCI-H226 lung.
The subject of assay [4] is 786-0 renal.
Assay [5] relates to BT-549 breast.
Assay [6] concerns HCT-15 colon.
Assay [7] deals with PC-3 prostate.
Assay [8] has as its system M14 melanoma.
The test system of assay [9] is NCI-H460 lung.

In general, TGI refers to the concentration giving total growth inhibition. A low value points to more potent growth arrest. As for `O=C1C(c2ccccc2)=C(c2ccccc2)C1(Cl)Cl`, the TGI was found to be 8.03 µM in assay [1]; 7.56 µM in assay [2]; 10.1 µM in assay [3]; 7.36 µM in [4]; 6.99 µM in [5]; 4.51 µM in assay [6]. For the same compound, the TGI was found to be 14.3 µM in [7], 5.9 µM in assay [8] and 20.8 µM in [9].
In the case of `COC(=O)/C1=C/C=C\C[C@@]2(C)CC(c3ccoc3)OC(=O)[C@@H]2CC[C@H]1C` (some centres not stated), the TGI in [1], in assay [2], in [3], in assay [4], in assay [5] and in [6] was above 25 µM each time. Besides, the total growth inhibition concentration (TGI) in assay [7], in assay [8] and in assay [9] was above 25 µM in each case.
In the case of `O=C(CCCCCNC(=O)c1ccc(Cl)cc1)NO`, the TGI in assay [1] is 13.9 µM; in [2] it was above 100 µM; in assay [3], 71.2 µM; in assay [4], 39 µM; in [5], above 100 µM; in assay [6] it was above 100 µM. The TGI in assay [7] is 9 µM; in assay [8] it was above 100 µM; in assay [9], 39.6 µM.
As to `Cc1cn(C2CC(O)C(Cn3nncc3Cn3nc(Br)c(=O)[nH]c3=O)O2)c(=O)[nH]c1=O` (configuration not stated), the total growth inhibition concentration (TGI) in [1], in assay [2], in assay [3], in [4], in assay [5] and in [6] was above 100 µM throughout. The TGI in assay [7] and in assay [8] was above 100 µM throughout.
For the compound `COP(=O)(CP(=O)(OC)OCCC(C)CCC=C(C)C)OC` (configuration not stated), the TGI in assay [1], in [2], in assay [3], in assay [4], in [5] and in [6] was above 100 µM throughout. Moreover, the concentration for total growth inhibition (TGI) in assay [7], in assay [8] and in [9] was above 100 µM each time.
With `COC(=O)NC(Cc1ccccc1)NC(=O)OC(C)(C)C` (configuration not stated), the TGI in assay [1], in [2], in [3], in assay [4], in assay [5] and in [6] was above 100 µM throughout. Moreover, the TGI in assay [7], in assay [8] and in assay [9] was above 100 µM in each case.
`O=c1oc2ccccc2c(O)c1C(c1ccc(OCc2ccccc2)cc1)c1c(O)c2ccccc2oc1=O`: the TGI in assay [1] is 60.1 µM; in assay [2], above 100 µM; in assay [3] it was above 100 µM; in assay [4] it was above 100 µM; in assay [5] it was 61.8 µM; in [6] it was above 100 µM. In addition, the TGI in assay [7], in assay [8] and in [9] was above 100 µM throughout.
In the case of `C[Si](C)(C)OC1(C#N)c2ccccc2CCCC12CCCC2` (configuration not stated), the TGI is 56.2 µM in assay [1]; above 100 µM in assay [2]; above 100 µM in [3]; above 100 µM in assay [4]; above 100 µM in assay [5]; above 100 µM in assay [6]. Moreover, the TGI in assay [7], in assay [8] and in assay [9] was above 100 µM in each case.
On to `CCn1c(CCCc2nc3c([nH]2)c(=O)n(C)c(=O)n3C)nc2c1c(=O)n(C)c(=O)n2C`, for which the TGI in [1] is 27.8 µM; in [2], above 100 µM; in [3], 30.6 µM; in assay [4], above 100 µM; in [5], above 100 µM; in [6], above 100 µM. In addition, the TGI in assay [7], in assay [8] and in assay [9] was above 100 µM each time.
As to `CCOc1ccc2c(c1)C(/C(C(Cl)=C(Cl)Cl)=[N+](/[O-])OC(=O)c1ccccc1)=N2`, the TGI in [1] is above 100 µM; in assay [2], above 100 µM; in assay [3] it was above 100 µM; in assay [4] it was above 100 µM; in assay [5], 97.8 µM; in assay [6], above 100 µM. Moreover, the TGI in assay [7], in [8] and in [9] was above 100 µM throughout.
As for `COc1ccc(NC(=O)CSC(=O)c2ccccc2)c(SCCSSCCSc2cc(OC)ccc2NC(=O)CSC(=O)c2ccccc2)c1`, the TGI in assay [1], in assay [2], in assay [3], in [4], in [5] and in assay [6] was above 100 µM throughout. Further, the TGI in assay [7], in assay [8] and in assay [9] was above 100 µM throughout.
Consider `CCOP(=O)(OCC)/C(=C/n1c(=S)[nH]c2ccccc21)C(=O)OC`, for which the TGI was above 100 µM in [1]; above 100 µM in [2]; above 100 µM in assay [3]; above 100 µM in assay [4]; above 100 µM in assay [5]; above 52.2 µM in [6]. Further, the TGI in assay [7] is above 100 µM; in assay [8] it was above 100 µM; in [9], above 31.6 µM.
On to `COC1(OC)CC(CO)(COc2cc(Cl)nc(N)n2)C1`, for which the TGI in assay [1], in [2], in assay [3], in [4], in assay [5] and in [6] was above 100 µM each time. The TGI in assay [7] and in [9] was above 100 µM throughout.
With `CCCCCCCCCCCC(=O)N(CCCCCCCCC)CC(O)C(O)C(OC1OC(CO)C(O)C(O)C1O)C(O)CO` (configuration not stated), the TGI worked out at 35 µM in assay [1]; 37.7 µM in [2]; 37.8 µM in [3]; 32.8 µM in assay [4]; 36.9 µM in assay [5]; 34.5 µM in assay [6]. For the same compound, the TGI in [7] was 39.2 µM; in assay [8], 36.9 µM; in [9], 35.6 µM.
In the case of `Oc1ccc(-c2nc3cc(C(F)(F)F)ccc3s2)cc1`, the TGI was found to be 30 µM in [1]; 26.6 µM in assay [2]; 32.6 µM in assay [3]; 28.5 µM in [5]; 22.1 µM in [6]; 27.9 µM in assay [7]. Further, the TGI in [8] came out at 29.2 µM; in [9], 30.1 µM.
